According to patent US11613525B2 (CTXT PTY LIMITED, priority 2018, dated 2023):
Where two headings read alike, the source gives them in different places.

Legend:
human STING (HAQ) [1] = target: T1, human STING (HAQ) (Homo sapiens, UniProt Q86WV6, G230A/H232R/R293Q); conditions: read-out: SPR (HAQ) KD; 25° C.
human STING (HAQ) [2] = target: T1, human STING (HAQ); experiment: biochemical; assay type: binding
huSTING (HAQ) = huSTING (HAQ) (Homo sapiens (Human), UniProt Q86WV6, G230A/H232R/R293Q/R71H); experiment: THP-1 reporter cell line assay, THP-1 STING Lucia ISG cells; assay type: cell-based; conditions: THP-1 STING Lucia ISG cells, read-out: Cellular EC50 huSTING (HAQ)
huSTING (WT) [3] = target: T2, huSTING (WT) (Homo sapiens (Human), UniProt Q86WV6, H232R); experiment: Differential scanning fluorimetry (DSF), huSTING (WT); assay type: binding; conditions: read-out: DSF huSTING (WT) ΔTm (° C.)
Target sequence in this assay (Q86WV6 other isoform, or with tags, fused parts or gaps, stated change not applied): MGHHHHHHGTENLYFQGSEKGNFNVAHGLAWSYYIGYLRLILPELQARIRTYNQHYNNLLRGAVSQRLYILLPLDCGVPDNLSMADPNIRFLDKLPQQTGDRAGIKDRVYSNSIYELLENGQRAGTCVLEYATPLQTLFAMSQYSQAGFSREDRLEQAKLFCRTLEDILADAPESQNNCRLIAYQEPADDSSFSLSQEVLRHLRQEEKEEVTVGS

huSTING (WT) [4] = target: T2, huSTING (WT); experiment: THP-1 reporter cell line assay, THP-1-Dual KI-hSTING-R232 cells; assay type: cell-based; conditions: read-out: Cellular EC50 huSTING (WT)
Target sequence in this assay (Q86WV6 whole entry H232R): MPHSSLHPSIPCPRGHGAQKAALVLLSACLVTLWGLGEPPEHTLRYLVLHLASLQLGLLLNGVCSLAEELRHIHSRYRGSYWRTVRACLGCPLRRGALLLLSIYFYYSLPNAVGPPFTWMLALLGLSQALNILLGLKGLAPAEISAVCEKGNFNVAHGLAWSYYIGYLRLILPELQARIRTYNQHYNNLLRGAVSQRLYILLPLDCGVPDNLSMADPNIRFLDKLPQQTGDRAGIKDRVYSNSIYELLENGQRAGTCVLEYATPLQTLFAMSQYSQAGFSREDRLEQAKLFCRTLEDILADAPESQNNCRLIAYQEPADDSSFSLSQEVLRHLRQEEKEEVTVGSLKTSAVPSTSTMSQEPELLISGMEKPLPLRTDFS

huSTING (WT) [5] = target: T2, huSTING (WT); experiment: SPR (WT) 8° C.; assay type: binding; conditions: read-out: SPR huSTING (WT) KD at 8° C.
Excerpt: (§1) Binding interactions of ligands with STING proteins were quantified using Surface Plasmon Resonance (SPR) with a minimally biotinylated STING protein immobilized on Streptavidin chip surface.
(§2) These were modified for compounds with longer residence times, so that curves could reach steady-state, or so that compound would be fully dissociated before the subsequent injection.
(§3) For single-cycle kinetic experiments, sensorgrams were fit to a two-step kinetic model in which two analyte molecules bind sequentially (Biacore T200 or S200 Evaluation Software).
Target sequence in this assay (Q86WV6 other isoform, or with tags, fused parts or gaps, stated change not applied): as the sequence (Q86WV6 other isoform, or with tags, fused parts or gaps, stated change not applied) above

human STING (HAQ) [6] = target: T1, human STING (HAQ); experiment: SPR (HAQ) 8° C.; assay type: binding; conditions: 50% occupancy as surrogate KD, read-out: SPR huSTING (HAQ) KD at 8° C.
Excerpt: as §1, §2, §3

[7] = 1 μM protein, compound at 100 μM
[8] = compound 100 μM, protein concentration 2 μM
[9] = modified method, top concentration 40 μM, pin tool, EnVision

huSTING (HAQ), sequence (Q86WV6 whole entry R71H/G230A/H232R/R293Q): as the sequence (Q86WV6 whole entry H232R) above, with R71H, G230A, R293Q counted along it
T1 sequence (Q86WV6 whole entry G230A/H232R/R293Q, looked up): as the sequence (Q86WV6 whole entry H232R) above, with G230A, R293Q counted along it

SMILES | Kd (human STING (HAQ) [1]) [µM] | DSF huSTING (HAQ) ΔTm (° C.) (human STING (HAQ) [2]; [7]) [°C] | EC50 (huSTING (HAQ); 24 h, top concentration 50 μM) [µM] | ΔTm at 100 µM (huSTING (WT) [3]) [°C] | EC50 (huSTING (WT) [4]) [µM] | Kd (huSTING (WT) [5]) [µM] | DSF huSTING (HAQ) ΔTm (° C.) (human STING (HAQ) [2]; [8]) [°C] | EC50 (huSTING (HAQ); [9]) [µM] | Kd (human STING (HAQ) [6]) [µM]
Cc1cc(OCc2c(C(=O)O)sc3cccc(F)c23)ccc1C(N)=O [Example 54, 3-((4-Carbamoyl-3-methylphenoxy)methyl)-4-fluorobenzo[b]thiophene-2-carboxylic acid] | 51 | 2.56 | > 50 | -1.28 | > 50 | – | – | – | –
NC(=O)c1cc(F)c(OCc2c(C(=O)O)sc3cccc(F)c23)c(Br)c1 [Example 56, 3-((2-Bromo-4-carbamoyl-6-fluorophenoxy)methyl)-4-fluorobenzo[b]thiophene-2-carboxylic acid] | 29 | 4.48 | > 50 | -1.29 | > 50 | – | – | – | –
NC(=O)c1cc(F)c(OCc2c(C(=O)O)sc3cccc(F)c23)c(F)c1 [Example 57, 3-((4-Carbamoyl-2,6-difluorophenoxy)methyl)-4-fluorobenzo[b]thiophene-2-carboxylic acid] | 9.05 | 10.74 | > 50 | 3.43 | > 50 | – | – | – | –
NC(=O)c1ccc(OCc2c(C(=O)O)sc3cccc(F)c23)c(F)c1 [Example 59, 3-((4-carbamoyl-2-fluorophenoxy)methyl)-4-fluorobenzo[b]thiophene-2-carboxylic acid] | 15.2 | 7.31 | > 50 | 0.54 | > 50 | – | – | – | –
NC(=O)c1ccc(OCc2c(C(=O)O)sc3cccc(C4CC4)c23)cc1 [Example 61, 3-((4-Carbamoylphenoxy)methyl)-4-cyclopropylbenzo[b]thiophene-2-carboxylic acid] | 0.83 | 14.62 | 39.6 | 5.68 | > 50 | – | – | – | –
NC(=O)c1ccc(OCc2c(C(=O)O)sc3cccc(Cl)c23)cc1Br [Example 64, 3-((3-Bromo-4-carbamoylphenoxy)methyl)-4-chlorobenzo[b]thiophene-2-carboxylic acid] | 6.2 | 6.79 | > 50 | 2.73 | > 50 | – | – | – | –
NC(=O)c1cc(F)c(OCc2c(C(=O)O)sc3cccc(Cl)c23)c(Br)c1 [Example 71, 3-((2-Bromo-4-carbamoyl-6-fluorophenoxy)methyl)-4-chlorobenzo[b]thiophene-2-carboxylic acid] | 2.12 | 12.18 | 21.4 | 5.11 | 40.4 | – | – | – | –
NC(=O)c1ccc(CCc2c(C(=O)O)sc3cccc(F)c23)cc1 [Example 88, 3-(4-Carbamoylphenethyl)-4-fluorobenzo[b]thiophene-2-carboxylic acid] | 533 | 0.97 | > 50 | -1.07 | > 50 | – | – | – | –
COc1ncnc2sc(C(=O)O)c(COc3c(F)cc(C(N)=O)cc3F)c12 [Example 109, 5-((4-Carbamoyl-2,6-difluorophenoxy)methyl)-4-methoxythieno[2,3-d]pyrimidine-6-carboxylic acid] | – | – | – | – | > 40 | 200 | 8.60 | > 40 | 160
COCc1cc(OCc2c(C(=O)O)sc3cccc(Cl)c23)ccc1C(N)=O [Example 113, 3-((4-Carbamoyl-3-(methoxymethyl)phenoxy)methyl)-4-chlorobenzo[b]thiophene-2-carboxylic acid] | – | – | – | – | > 40 | – | 5.60 | > 40 | 52
NC(=O)c1cc(F)c(OCc2c(C(=O)O)sc3cncc(Cl)c23)c(F)c1 [Example 171, Lithium 3-((4-carbamoyl-2,6-difluorophenoxy)methyl)-4-chlorothieno[2,3-c]pyridine-2-carboxylate] | – | – | – | – | > 40 | – | 9.33 | > 40 | 4.87
COc1nccc2sc(C(=O)O)c(COc3c(F)cc(C(N)=O)cc3CO)c12 [Example 172, 3-((4-Carbamoyl-2-fluoro-6-(hydroxymethyl)phenoxy)methyl)-4-methoxythieno[3,2-c]pyridine-2-carboxylic acid] | – | – | – | – | > 40 | – | 0.56 | > 40 | 220
